pIC50: −log10 of the molar value. Where a name gives a salt, the structure may show the parent alone.

The pIC50 is the negative decadic logarithm of the IC50, by convention in mol/L.

PDE10A, sequence (Q9Y233 whole entry): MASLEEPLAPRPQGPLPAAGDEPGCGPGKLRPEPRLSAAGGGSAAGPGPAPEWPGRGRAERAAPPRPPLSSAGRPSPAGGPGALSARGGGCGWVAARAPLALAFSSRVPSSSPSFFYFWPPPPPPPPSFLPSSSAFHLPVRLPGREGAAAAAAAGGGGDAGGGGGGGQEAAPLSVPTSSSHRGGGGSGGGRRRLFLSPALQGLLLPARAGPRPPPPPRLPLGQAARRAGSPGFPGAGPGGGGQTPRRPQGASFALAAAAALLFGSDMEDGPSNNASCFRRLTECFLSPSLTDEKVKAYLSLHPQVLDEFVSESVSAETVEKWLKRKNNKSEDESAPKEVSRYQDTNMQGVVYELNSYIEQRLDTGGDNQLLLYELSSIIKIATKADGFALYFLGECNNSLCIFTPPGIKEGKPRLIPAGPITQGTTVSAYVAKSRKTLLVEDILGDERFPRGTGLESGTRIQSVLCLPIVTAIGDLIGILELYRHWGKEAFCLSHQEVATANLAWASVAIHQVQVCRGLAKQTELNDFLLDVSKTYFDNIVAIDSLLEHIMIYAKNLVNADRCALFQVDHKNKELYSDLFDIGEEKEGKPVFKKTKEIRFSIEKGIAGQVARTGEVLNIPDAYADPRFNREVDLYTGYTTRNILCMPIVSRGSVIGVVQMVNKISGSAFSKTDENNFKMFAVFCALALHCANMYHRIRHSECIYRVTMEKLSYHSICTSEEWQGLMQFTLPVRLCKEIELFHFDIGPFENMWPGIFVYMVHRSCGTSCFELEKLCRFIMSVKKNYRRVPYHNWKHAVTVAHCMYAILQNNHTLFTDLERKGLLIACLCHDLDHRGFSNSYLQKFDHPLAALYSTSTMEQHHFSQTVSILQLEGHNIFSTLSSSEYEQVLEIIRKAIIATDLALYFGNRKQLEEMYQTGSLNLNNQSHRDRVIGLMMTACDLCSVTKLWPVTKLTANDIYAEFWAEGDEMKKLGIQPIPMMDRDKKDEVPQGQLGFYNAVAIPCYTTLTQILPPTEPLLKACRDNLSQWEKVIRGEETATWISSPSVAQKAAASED

The assay concerns the target PDE10A (Homo sapiens (Human), UniProt Q9Y233). Briefly: Measurement of PDE10A inhibitory activity-2 (PDE10A fraction prepared from MOLT-4 cells). The assay is classed as biochemical. Particulars: PDE10A fraction from MOLT-4 cells (peak around 250 mM NaCl). The method, then: A human acute lymphoblastic lymphoma T cell line MOLT-4 (which can be purchased under ATCC No. CRL-1582 from ATCC) was cultured in an RPMI1640 medium containing 10% fetal bovine serum to obtain 5×10^8 MOLT-4 cells. The cells were recovered by centrifugation and suspended in 10 ml of buffer solution A (25 mM Tris-HCl, 5 mM 2-mercaptoethanol, 2 mM benzamidine, 2 mM EDTA, and 0.1 mM 4-(2-aminoethyl)benzenesulfonyl hydrochloride, pH 7.5). The cells were homogenized using a Polytron homogenizer and centrifuged (4° C., 25,000 g, 10 minutes). Then, the supernatant was further ultracentrifuged (4° C., 100,000 g, 60 minutes). The obtained supernatant was filtered through a 0.2 μm filter to obtain a soluble fraction.
HiTrap Q HP column (5 ml×2, GE Healthcare Japan Corp.) equilibrated with buffer solution A was charged with the obtained soluble fraction. Phosphodiesterase was eluted with 300 ml of buffer solution A containing a linear gradient solution of 0 to 0.8 M NaCl to recover sixty 5-ml fractions. Each fraction was tested for cAMP-metabolizing phosphodiesterase activity.
On the other hand, total RNA was prepared from Jurkat cells, one type of human T cell, and similarly subjected to RT-PCR. […] Eur J Biochem. 1999, 266 (3), 1118-2 has reported that PDE10A from the rat striatum and testis is eluted as an active peak centered around 250 mM NaCl.
For these reasons, this fraction was used as a solution for the evaluation of PDE10A inhibitory activity. The obtained solution was used to calculate the inhibitory activity (IC50) of a test compound in the same way as in the aforementioned test.
Consider `CC(=O)c1ccc(C(C)=O)c2c(C)c(C(=O)Nc3ccc4ccccc4n3)sc12` [Example 1, 4,7-Diacetyl-3-methyl-N-(quinolin-2-yl)benzo[b]thiophene-2-carboxamide], for which the pIC50 was 8.80.

Regarding `CC(=O)c1ccc(C(C)=O)c2c(C)c(C(=O)Nc3cc(C(C)(C)O)c4ccccc4n3)sc12` [Example 2, 4,7-Diacetyl-N-(4-(2-hydroxypropan-2-yl)quinolin-2-yl)-3-methylbenzo[b]thiophene-2-carboxamide], the negative logarithm of the IC50 (pIC50) is 8.59. Consider `CCc1c(C(=O)Nc2cc(C(C)(C)O)c3ccccc3n2)sc2c(C(C)=O)ccc(C(C)=O)c12` [Example 7, 4,7-Diacetyl-3-ethyl-N-(4-(2-hydroxypropan-2-yl)quinolin-2-yl)benzo[b]thiophene-2-carboxamide], for which the negative logarithm of the IC50 (pIC50) is 8.30. Turning to `CC(=O)c1ccc(C(C)=O)c2sc(C(=O)Nc3cc(C(C)(C)O)c4ccccc4n3)cc12` [Example 8, 4,7-Diacetyl-N-(4-(2-hydroxypropan-2-yl)quinolin-2-yl)benzo[b]thiophene-2-carboxamide], the pIC50 was 7.92. The value for `CC(=O)c1ccc(C(C)O)c2c(C)c(C(=O)Nc3cc(C(C)(C)O)c4ccccc4n3)sc12` (stereo not drawn) [Example 9, 7-Acetyl-4-(1-hydroxyethyl)-N-(4-(2-hydroxypropan-2-yl)quinolin-2-yl)-3-methylbenzo[b]thiophene-2-carboxamide] was 8.11. The value for `CCC(=O)c1ccc(C(C)=O)c2sc(C(=O)Nc3cc(C(C)(C)O)c4ccccc4n3)c(C)c12` [Example 10, 7-Acetyl-N-(4-(2-hydroxypropan-2-yl)quinolin-2-yl)-3-methyl-4-propionylbenzo[b]thiophene-2-carboxamide] was 7.70; that for `CC(=O)c1ccc(C(C)=O)c2c(C)c(C(=O)Nc3cc(C)c4ccccc4n3)sc12` [Example 11, 4,7-Diacetyl-3-methyl-N-(4-methylquinolin-2-yl)benzo[b]thiophene-2-carboxamide] was 8.66; that for `COc1cc(NC(=O)c2sc3c(C(C)=O)ccc(C(C)=O)c3c2C)nc2ccccc12` [Example 12, 4,7-Diacetyl-N-(4-methoxyquinolin-2-yl)-3-methylbenzo[b]thiophene-2-carboxamide] was 8.36. In the case of `CC(=O)c1ccc(C(C)=O)c2c(C)c(C(=O)Nc3cc(C(C)O)c4ccccc4n3)sc12` (stereo not drawn) [Example 13, 4,7-Diacetyl-N-(4-(1-hydroxyethyl)quinolin-2-yl)-3-methylbenzo[b]thiophene-2-carboxamide], the negative-log IC50 (pIC50) is 8.70. Molecule `CC(=O)c1ccc(C(C)=O)c2c(C)c(C(=O)Nc3cc(CO)c4ccccc4n3)sc12` [Example 14, 4,7-Diacetyl-N-(4-(hydroxymethyl)quinolin-2-yl)-3-methylbenzo[b]thiophene-2-carboxamide] showed a pIC50 of 9.05. Then `CC(=O)c1ccc(C(C)=O)c2c(C)c(C(=O)Nc3cc(CN(C)C(C)=O)c4ccccc4n3)sc12` [Example 15, 4,7-Diacetyl-3-methyl-N-(4-((N-methylacetamido)methyl)quinolin-2-yl)benzo[b]thiophene-2-carboxamide], with 8.64; and `CCC(=O)c1cccc2c(C)c(C(=O)Nc3cc(C(C)(C)O)c4ccccc4n3)sc12` [Example 16, N-(4-(2-Hydroxypropan-2-yl)quinolin-2-yl)-3-methyl-7-propionylbenzo[b]thiophene-2-carboxamide], with 8.32; and `CCCC(=O)c1cccc2c(C)c(C(=O)Nc3cc(C(C)(C)O)c4ccccc4n3)sc12` [Example 17, 7-Butyryl-N-(4-(2-hydroxypropan-2-yl)quinolin-2-yl)-3-methylbenzo[b]thiophene-2-carboxamide], with 8.59. The value for `Cc1c(C(=O)Nc2cc(C(C)(C)O)c3ccccc3n2)sc2c(C(=O)C(C)C)cccc12` [Example 18, N-(4-(2-Hydroxypropan-2-yl)quinolin-2-yl)-7-isobutyryl-3-methylbenzo[b]thiophene-2-carboxamide] was 9.33; that for `Cc1c(C(=O)Nc2cc(C(C)(C)O)c3ccccc3n2)sc2c(C(=O)C3CC3)cccc12` [Example 19, 7-(Cyclopropylcarbonyl)-N-(4-(2-hydroxypropan-2-yl)quinolin-2-yl)-3-methylbenzo[b]thiophene-2-carboxamide] was 9.04. The value for `CCCCC(=O)c1cccc2c(C)c(C(=O)Nc3cc(C(C)(C)O)c4ccccc4n3)sc12` [Example 20, N-(4-(2-Hydroxypropan-2-yl)quinolin-2-yl)-3-methyl-7-pentanoylbenzo[b]thiophene-2-carboxamide] was 8.00; that for `Cc1c(C(=O)Nc2cc(C(C)(C)O)c3ccccc3n2)sc2c(C(=O)C3CCC3)cccc12` [Example 21, 7-(Cyclobutylcarbonyl)-N-(4-(2-hydroxypropan-2-yl)quinolin-2-yl)-3-methylbenzo[b]thiophene-2-carboxamide] was 9.17. As for `Cc1c(C(=O)Nc2cc(C(C)(C)O)c3ccccc3n2)sc2c(C(=O)C(C)(C)C)cccc12` [Example 22, N-(4-(2-Hydroxypropan-2-yl)quinolin-2-yl)-3-methyl-7-pivaloylbenzo[b]thiophene-2-carboxamide], the negative-log IC50 (pIC50) was 9.00. The value for `Cc1c(C(=O)Nc2cc(C(C)(C)O)c3ccccc3n2)sc2c(C(=O)CC(C)C)cccc12` [Example 23, N-(4-(2-Hydroxypropan-2-yl)quinolin-2-yl)-3-methyl-7-(3-methylbutanoyl)benzo[b]thiophene-2-carboxamide] was 8.00. Then `CCC(CC)C(=O)c1cccc2c(C)c(C(=O)Nc3cc(C(C)(C)O)c4ccccc4n3)sc12` [Example 24, 7-(2-Ethylbutanoyl)-N-(4-(2-hydroxypropan-2-yl)quinolin-2-yl)-3-methylbenzo[b]thiophene-2-carboxamide], with 7.60; and `Cc1c(C(=O)Nc2cc(C(C)(C)O)c3ccccc3n2)sc2c(C(=O)C3CCCC3)cccc12` [Example 25, 7-(Cyclopentylcarbonyl)-N-(4-(2-hydroxypropan-2-yl)quinolin-2-yl)-3-methylbenzo[b]thiophene-2-carboxamide], with 8.40. The value for `CCOCc1ccc(C(C)=O)c2sc(C(=O)Nc3cc(C(C)(C)O)c4ccccc4n3)c(C)c12` [Example 29, 7-Acetyl-4-(ethoxymethyl)-N-(4-(2-hydroxypropan-2-yl)quinolin-2-yl)-3-methylbenzo[b]thiophene-2-carboxamide] was 8.52; that for `CCCOCc1ccc(C(C)=O)c2sc(C(=O)Nc3cc(C(C)(C)O)c4ccccc4n3)c(C)c12` [Example 30, 7-Acetyl-N-(4-(2-hydroxypropan-2-yl)quinolin-2-yl)-3-methyl-4-(propoxymethyl)benzo[b]thiophene-2-carboxamide] was 7.96; that for `CC(=O)c1ccc(COC(C)C)c2c(C)c(C(=O)Nc3cc(C(C)(C)O)c4ccccc4n3)sc12` [Example 31, 7-Acetyl-N-(4-(2-hydroxypropan-2-yl)quinolin-2-yl)-4-(isopropoxymethyl)-3-methylbenzo[b]thiophene-2-carboxamide] was 7.80. For `COC(C)c1ccc(C(C)=O)c2sc(C(=O)Nc3cc(C(C)(C)O)c4ccccc4n3)c(C)c12` (stereo not drawn) [Example 32, 7-Acetyl-N-(4-(2-hydroxypropan-2-yl)quinolin-2-yl)-4-(1-methoxyethyl)-3-methylbenzo[b]thiophene-2-carboxamide], the pIC50 was 8.04. As for `COCc1ccc(C(C)=O)c2sc(C(=O)Nc3cc(C(C)O)c4ccccc4n3)c(C)c12` (stereo not drawn) [Example 33, 7-Acetyl-N-(4-(1-hydroxyethyl)quinolin-2-yl)-4-(methoxymethyl)-3-methylbenzo[b]thiophene-2-carboxamide hydrochloride], the pIC50 was 9.05. The value for `COCc1ccc(C(C)=O)c2sc(C(=O)Nc3cc(CN(C)CCO)c4ccccc4n3)c(C)c12` [Example 34, 7-Acetyl-N-(4-(((2-hydroxyethyl)(methyl)amino)methyl)quinolin-2-yl)-4-(methoxymethyl)-3-methylbenzo[b]thiophene-2-carboxamide dihydrochloride] was 9.03. Then `COCc1ccc(C(C)=O)c2sc(C(=O)Nc3cc(CN4CCC(O)C4)c4ccccc4n3)c(C)c12` (stereo not drawn) [Example 35, 7-Acetyl-N-(4-((3-hydroxypyrrolidin-1-yl)methyl)quinolin-2-yl)-4-(methoxymethyl)-3-methylbenzo[b]thiophene-2-carboxamide], with 9.54; and `COCc1ccc(C(C)=O)c2sc(C(=O)Nc3cc(CN4CCCC(O)C4)c4ccccc4n3)c(C)c12` (stereo not drawn) [Example 37, 7-Acetyl-N-(4-((3-hydroxypiperidin-1-yl)methyl)quinolin-2-yl)-4-(methoxymethyl)-3-methylbenzo[b]thiophene-2-carboxamide], with 9.30; and `COCc1ccc(C(C)=O)c2sc(C(=O)Nc3cc(CN4CCCC4)c4ccccc4n3)c(C)c12` [Example 43, 7-Acetyl-4-(methoxymethyl)-3-methyl-N-(4-(pyrrolidin-1-ylmethyl)quinolin-2-yl)benzo[b]thiophene-2-carboxamide], with 8.21.
